The source of these data is patent publication US20120035175A1, “Novel salts as Anti-Inflammatory, Immunomodulatory and Anti-Proliferatory Agents” (4SC AG, priority 2010, published 2012).

pIC50: −log10 of the molar value. Read-outs that look alike come from different tables or passages of the source. Where only a bound is given, the exact number is not on record here.

For data set [1], the target named is T1, recombinant murine DHODH (Mus musculus, UniProt O35435).
T1 construct: Prof; M. Löffler, Marburg, Germany (gift)
T1 sequence (O35435 whole entry): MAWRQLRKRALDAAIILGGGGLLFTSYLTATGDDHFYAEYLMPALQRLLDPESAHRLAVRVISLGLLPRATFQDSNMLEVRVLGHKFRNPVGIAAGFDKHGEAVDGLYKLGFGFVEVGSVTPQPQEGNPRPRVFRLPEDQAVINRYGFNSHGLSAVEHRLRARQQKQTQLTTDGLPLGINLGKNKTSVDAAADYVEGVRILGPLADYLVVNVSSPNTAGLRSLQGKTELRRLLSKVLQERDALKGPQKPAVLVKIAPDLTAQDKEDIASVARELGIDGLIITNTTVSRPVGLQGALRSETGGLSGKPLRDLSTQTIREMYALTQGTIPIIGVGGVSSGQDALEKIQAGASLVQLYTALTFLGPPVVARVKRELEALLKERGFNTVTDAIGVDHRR
The experiment in a line: Inhibition assay of DHODH activity (murine enzyme). The class given is biochemical. To be noted: class symbols, key in nM. As to the method: (§1) The standard assay mixture contained 50 μM decyclo ubichinone, 100 μM dihydroorotate, 60 μM 2,6-dichloroindophenol, as well as 20 mU DHODH. The volume activity of the recombinant enzyme used was 30 U/ml. Measurements were conducted in 50 mM TrisHCl (150 mM KCl, 0.1% Triton X-100, pH 8.0) at 30° C. in a final volume of 1 ml. The components were mixed, and the reaction was started by adding dihydroorotate. The course of reaction was followed by spectrophotometrically measuring the decrease in absorption at 600 nm for […].
(§2) Inhibitory studies were conducted in a standard assay with additional variable amounts of inhibitor. […] These investigations were carried out with recombinant human as well as with recombinant murine DHODH provided by Prof. M. Löffler, Marburg, Germany [M. Löffler, Chem. Biol. Interact.

The target of data set [2] is T2, recombinant human DHODH (Homo sapiens, UniProt Q02127).
T2 construct: Prof; M. Löffler, Marburg, Germany (gift)
T2 sequence (Q02127 whole entry): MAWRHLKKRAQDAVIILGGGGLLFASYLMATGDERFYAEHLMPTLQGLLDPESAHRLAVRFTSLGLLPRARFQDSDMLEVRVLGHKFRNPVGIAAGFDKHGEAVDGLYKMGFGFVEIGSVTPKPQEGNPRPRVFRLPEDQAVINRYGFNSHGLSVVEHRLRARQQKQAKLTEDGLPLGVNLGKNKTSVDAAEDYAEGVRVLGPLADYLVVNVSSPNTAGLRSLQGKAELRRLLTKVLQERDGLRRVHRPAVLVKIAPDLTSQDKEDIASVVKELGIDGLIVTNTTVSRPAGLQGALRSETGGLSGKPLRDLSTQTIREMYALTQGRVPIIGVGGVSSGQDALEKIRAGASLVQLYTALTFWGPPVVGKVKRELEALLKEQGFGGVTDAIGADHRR
As to the kind of experiment: Inhibition assay of DHODH activity (human enzyme). The class given is biochemical. The protocol:
as §1, §2

Data set [3] can be described thus: Dynamic vapor sorption (water uptake). The class given is physicochemical. To be noted: for % water uptake at 85% r.h.: about 85% r.h. An excerpt: DVS (SMS): Surface Measurement Systems Ltd. DVS-1 water vapour sorption analyzer. The sample is placed on a platinum sample pan and allowed to equilibrate at a given relative humidity (r.h.), usually 50% r.h. Then, a pre-defined humidity program was started with a scanning rate of 5% r.h. change per hour. First step: from 50% r.h. to 0% r.h. (in case of a possibly hydrate as starting material 50 to 95% r.h.), second step: from 0% to 95% r.h. (in case of a possibly hydrate as starting material 95 to 0% r.h.)

Data set [4] in a line: Long-term stability, 18 months storage, HPLC. It counts as physicochemical. The protocol: HPLC: HPLC was performed with a Dionex UltiMate® 3000 liquid chromatograph comprising a solvent Rack, a vacuum degasser, a binary pump (mikro), a static mixer (500 μl), an autosampler, a 25 μl sample loop, a 100 μl syringe, a column oven and a DAD detector (semimicro measuring cell), which was set up for UV analysis. Data analysis was done with Chromeleon® 6.80 SP3. Compounds were separated at 30° C. on a Phenomenex Onyx™ Monolithic C18 50×2 mm column. The injection volume was 2 μl and the detection wavelength was 305 nm. As mobile phase, a gradient of 0.1% formic acid in HPLC grade water/acetonitrile was used, starting at a concentration of 5% acetonitrile. The starting concentration was held for 1 minute, then the gradient was ramped linearly to 95% acetonitrile over the course of 2 min, held for 0.7 min at 95% acetonitrile, after which it was returned to 5% acetonitrile within 0.1 min and kept constant for 0.7 min to re-equilibrate the column. The mobile phase flow rate was 1.5 ml/min.
The compounds were stored for 18 months at ambient conditions (20-25° C., 30-60% relative humidity) and subsequently analysed by HPLC for purity.

The IC50 is the midpoint of a concentration-inhibition curve. Take `O=C(O)C1=C(C(=O)Nc2ccc(-c3ccccc3F)cc2)CCC1` [Compound 13, 2-((2′-fluoro-[1,1′-biphenyl]-4-yl)carbamoyl)cyclopent-1-enecarboxylic acid]: the IC50 in data set [1] is over 1500 nM.

Regarding `O=C(O)C1=C(C(=O)Nc2ccc(-c3ccccc3Cl)cc2)CCC1` [Compound 14, 2-((2′-chloro-[1,1′-biphenyl]-4-yl)carbamoyl)cyclopent-1-enecarboxylic acid], the IC50 in data set [1] was over 1500 nM.

Consider `COc1ccc(-c2ccc(NC(=O)C3=C(C(=O)O)CCC3)cc2Cl)cc1` [Compound 19, 2-((2-chloro-4′-methoxy-[1,1′-biphenyl]-4-yl)carbamoyl)cyclopent-1-enecarboxylic acid], for which the half-maximal inhibitory concentration (IC50) in data set [1] was under 800 nM.

Regarding `O=C(O)C1=C(C(=O)Nc2cc(Br)c(OCc3cc(F)ccc3F)c(Br)c2)CCC1` [Compound 24, 2-((3,5-dibromo-4-((2,5-difluorobenzyl)oxy)phenyl)carbamoyl)cyclopent-1-enecarboxylic acid], the IC50 in data set [1] lay in the range of 800 to 1500 nM.

For the molecule `O=C(O)C1=C(C(=O)Nc2cc(Br)c(OCc3ccc(F)c(F)c3)c(Br)c2)CCC1` [Compound 25, 2-((3,5-dibromo-4-((3,4-difluorobenzyl)oxy)phenyl)carbamoyl)cyclopent-1-enecarboxylic acid], the IC50 in data set [2] (recombinant human DHODH, class symbols, key in nM, read-out: human IC50-Value) is under 800 nM.

With `O=C(O)C1=C(C(=O)Nc2ccc(-c3cccc(F)c3)cc2F)CCC1` [Compound 27, 2-((3,3′-difluoro-[1,1′-biphenyl]-4-yl)carbamoyl)cyclopent-1-enecarboxylic acid], in data set [1], the IC50 is over 1500 nM.

With `O=C(O)C1=C(C(=O)Nc2cc(Br)c(OCc3ccccc3)c(Br)c2)CSC1` [Compound 29, 4-((4-(benzyloxy)-3,5-dibromophenyl)carbamoyl)-2,5-dihydrothiophene-3-carboxylic acid], the IC50 in data set [1] is over 1500 nM.

Turning to `O=C(O)C1=C(C(=O)Nc2ccc(-c3ccccc3Cl)cc2)CSC1` [Compound 41, 4-((2′-chloro-[1,1′-biphenyl]-4-yl)carbamoyl)-2,5-dihydrothiophene-3-carboxylic acid], the IC50 in data set [1] is over 1500 nM.

As for `Cc1cccc(Sc2ccc(NC(=O)C3=C(C(=O)O)CCC3)cc2)c1` [Compound 42, 2-((4-(m-tolylthio)phenyl)carbamoyl)cyclopent-1-enecarboxylic acid], the IC50 in data set [1] was under 800 nM.

As to `CCOc1cccc(-c2ccc(NC(=O)C3=C(C(=O)O)CCC3)c(F)c2)c1` [Compound 46, 2-((3′-ethoxy-3-fluoro-[1,1′-biphenyl]-4-yl)carbamoyl)cyclopent-1-enecarboxylic acid], the IC50 in data set [1] was over 1500 nM.

On to `O=C(O)C1=C(C(=O)Nc2ccc(Oc3ccccc3)cc2)CCC1` [Compound 50, 2-((4-phenoxyphenyl)carbamoyl)cyclopent-1-enecarboxylic acid], for which the concentration for half-maximal inhibition (IC50) in data set [1] is under 800 nM.

As for `COc1ccccc1-c1ccc(NC(=O)C2=C(C(=O)O)CCC2)c(Cl)c1` [Compound 53, 2-((3-chloro-2′-methoxy-[1,1′-biphenyl]-4-yl)carbamoyl)cyclopent-1-enecarboxylic acid], the IC50 in data set [1] is 800 to 1500 nM.

With `COc1ccccc1-c1ccc(NC(=O)C2=C(C(=O)O)CCC2)cc1Cl` [Compound 54, 2-((2-chloro-2′-methoxy-[1,1′-biphenyl]-4-yl)carbamoyl)cyclopent-1-enecarboxylic acid], the IC50 in data set [1] is 800 to 1500 nM.

Consider `COc1ccccc1-c1c(F)c(F)c(NC(=O)C2=C(C(=O)O)CCC2)c(F)c1F` [Compound 56, 2-((2,3,5,6-tetrafluoro-2′-methoxy-[1,1′-biphenyl]-4-yl)carbamoyl)cyclopent-1-enecarboxylic acid], for which, in data set [1], the 50% inhibitory concentration (IC50) is under 800 nM.

Regarding `COc1ccccc1-c1ccc(NC(=O)C2=C(C(=O)O)CCC2)c(C)c1` [Compound 57, 2-((2′-methoxy-3-methyl-[1,1′-biphenyl]-4-yl)carbamoyl)cyclopent-1-enecarboxylic acid], the IC50 in data set [1] was 800 to 1500 nM.

Take `COc1ccccc1-c1cc(Cl)c(NC(=O)C2=C(C(=O)O)CCC2)c(Cl)c1` [Compound 58, 2-((3,5-dichloro-2′-methoxy-[1,1′-biphenyl]-4-yl)carbamoyl)cyclopent-1-enecarboxylic acid]: the IC50 in data set [1] was in the range of 800 to 1500 nM.

Consider `CCOc1ccccc1-c1cc(F)c(NC(=O)C2=C(C(=O)O)CCC2)c(F)c1` [Compound 62, 2-((2′-ethoxy-3,5-difluoro-[1,1′-biphenyl]-4-yl)carbamoyl)cyclopent-1-enecarboxylic acid], for which the IC50 in data set [1] lay in the range of 800 to 1500 nM.

With `CCOc1cccc(-c2cc(F)c(NC(=O)C3=C(C(=O)O)CCC3)c(F)c2)c1` [Compound 63, 2-((3′-ethoxy-3,5-difluoro-[1,1′-biphenyl]-4-yl)carbamoyl)cyclopent-1-enecarboxylic acid], the IC50 in data set [1] was 800 to 1500 nM.

For `O=C(O)C1=C(C(=O)Nc2c(F)cc(-c3ccccc3F)cc2F)CCC1` [Compound 66, 2-((2′,3,5-trifluoro-[1,1′-biphenyl]-4-yl)carbamoyl)cyclopent-1-enecarboxylic acid], the IC50 in data set [1] was in the range of 800 to 1500 nM.

Regarding `COc1ccc(-c2cc(F)c(NC(=O)C3=C(C(=O)O)CCC3)c(F)c2)c(OC)c1` [Compound 67, 2-((3,5-difluoro-2′,4′-dimethoxy-[1,1′-biphenyl]-4-yl)carbamoyl)cyclopent-1-enecarboxylic acid], in data set [1], the IC50 was over 1500 nM.

`O=C(O)C1=C(C(=O)Nc2ccc(OCc3ccccc3C(F)(F)F)c(Cl)c2)CCC1` [Compound 68, 2-((3-chloro-4-((2-(trifluoromethyl)benzyl)oxy)phenyl)carbamoyl)cyclopent-1-enecarboxylic acid]: the IC50 in data set [1] was over 1500 nM.

What is called pIC50 is the negative decadic logarithm of the IC50, by convention in mol/L. As to `O=C(O)C1=C(C(=O)Nc2ccc(OCc3c(F)cccc3Cl)c(Cl)c2)CCC1` [Compound 69, 2-((3-chloro-4-((2-chloro-6-fluorobenzyl)oxy)phenyl)carbamoyl)cyclopent-1-enecarboxylic acid], the pIC50 in data set [2] was over 6.10. The IC50 in data set [1] is under 800 nM.

For the molecule `O=C(O)C1=C(C(=O)Nc2ccc(OCc3ccccc3)c(Cl)c2)CCC1` [Compound 72, 2-((4-(benzyloxy)-3-chlorophenyl)carbamoyl)cyclopent-1-enecarboxylic acid], the 50% inhibitory concentration (IC50) in data set [1] was 800 to 1500 nM.

Regarding `O=C(O)C1=C(C(=O)Nc2ccc(OCc3ccccc3F)c(Cl)c2)CCC1` [Compound 74, 2-((3-chloro-4-((2-fluorobenzyl)oxy)phenyl)carbamoyl)cyclopent-1-enecarboxylic acid], in data set [1], the IC50 is under 800 nM.

In the case of `CCNCC.COc1cccc(-c2ccc(NC(=O)C3=C(C(=O)O)CCC3)c(F)c2)c1` [Diethylamine (DEA) salt], in data set [3], the “% water uptake at 95% r.h.” value is given as 0.5% and the “% water uptake at 85% r.h.” value is recorded as 0.2%. This molecule came in with a Peak area in data set [4] (HPLC after 18 months storage at ambient conditions (20-25° C., 30-60% relative humidity)) of over 99%. The “Occurrence of hydrolysis product in HPLC after 18 months storage” value in data set [4] (ambient conditions (20-25° C., 30-60% relative humidity), LOD for hydrolysis product: 0.1 μg/ml) was “Below LOD*”.

For `COc1cccc(-c2ccc(NC(=O)C3=C(C(=O)[O-])CCC3)c(F)c2)c1.[K+]` [K salt], in data set [3], the “% water uptake at 95% r.h.” value is reported as “Ca. 1%” and the “% water uptake at 85% r.h.” value is on record as “Ca. 0.5%”.

Take `COc1cccc(-c2ccc(NC(=O)C3=C(C(=O)O)CCC3)c(F)c2)c1.N=C(N)NCCCC(N)C(=O)O` [L-Arginine salt]: in data set [3], the “% water uptake at 95% r.h.” value is given as over 12% and the “% water uptake at 85% r.h.” value amounted to 1.7%. In addition, the “% water uptake at 95% r.h.” value in data set [3] (listed as arginine salt) was over 12%.

For the molecule `COc1cccc(-c2ccc(NC(=O)C3=C(C(=O)[O-])CCC3)c(F)c2)c1.COc1cccc(-c2ccc(NC(=O)C3=C(C(=O)[O-])CCC3)c(F)c2)c1.[Mg+2]` [Mg salt], in data set [3], the “% water uptake at 95% r.h.” value was “Ca. 10%” and the “% water uptake at 85% r.h.” value is “Ca. 5%”.

For the molecule `COc1cccc(-c2ccc(NC(=O)C3=C(C(=O)[O-])CCC3)c(F)c2)c1.[Na+]` [Na salt], in data set [3], the “% water uptake at 95% r.h.” value is on record as “Ca. 7.5%” and the “% water uptake at 85% r.h.” value was “Ca. 5%”.
